For series [1], the system named is H358 derived xenografts. Description: H358 derived xenografts in Nude mice. The series is classed as in vivo. To be noted: 25 mg/kg daily intraperitoneal in 1% Tween 80, H358 xenografts, FIG. 7. From the text: In vivo activity of the E266 (compound (I) of the present application) compared to that of the E260 (EP 2401283) in H358 derived xenografts in immune-compromised (Nude) mice.
In order to compare the relative efficacy of E266 and E260 in inhibiting the development and progression of malignant tumors in-vivo, the activity in xenograft model in mice was examined for both compounds. H358 derived xenografts in immune-compromised were elicited in (Nude) mice. The H358 cells, which are metastatic bronchioloalveolar carcinoma (BAC)-non-small cell lung cancer (NSCLC) cells, were subcutaneously injected to the back of the nude mice. When the developing xenografts reached 100 mm^3 size, the inflicted animals were divided into three groups, 10 mice in each group. One group received daily intraperitoneal injection of the solvent 1% Tween 80. This solvent/emulsifier is biocompatible and is approved for pharmaceutical applications in humans. The second group received daily intraperitoneal injection of 25 mg/kg E260 dissolved in 1% Tween 80, and the third group got daily intraperitoneal injection of 25 mg/kg, E266 dissolved in the 1% Tween 80, solvent. The progression of the elicited xenografts was monitored by measuring twice a week the volumes of the developing tumors.

For series [2], the system named is metastatic colon cancer SW620 cells. Description: viability / killing of SW620 cells. In kind it is cell-based. To be noted: E266 versus E260; compound (I) as tartarate salt in 0.5% Tween-80; FIG. 3. The protocol:
(§1) The compound (I), as tartarate salt was dissolved in 0.5% Tween-80 to affect the viability of several cell lines as follows.
(§2) The effect of the compound (I) (E266) on the growth profile of cancer cells which express Fer was tested. The cells that were tested were: the metastatic colon cancer cell line—SW620, the metastatic pancreatic ductal-adenocarcinoma SU.86.86 cancer cell-line—SU.86.86, the metastatic Triple Negative breast cancer cell line—MDA-MB-231, and the metastatic prostate cancer cell-line—PC3. The effect of the compound (I) (E266) on FS11 cells, a non malignant fibroblastic cell line, was also studied.

In series [3] the test system is metastatic pancreatic ductal adenocarcinoma Su.86.86 cancer cells. Description: viability / killing of Su.86.86 cells. The series is classed as cell-based. The note with it: E266 versus E260; compound (I) as tartarate salt in 0.5% Tween-80; FIG. 4. How it is done: as §1, §2
The test system of series [4] is normal Epithelial cells. Description: effect on normal epithelial cells. To be noted: FIG. 2. The series is classed as cell-based. How it is done: Compound (I) was dissolved in 20% hydroxypropylcyclodextrane and the volume of administration (IP) was 10 ml/kg.
Series [5] concerns metastatic adenocarcinoma PC3 prostate Cancer cells. As to the kind of experiment: viability / killing of PC3 cells. In kind it is cell-based. To be noted: E266 versus E260; compound (I) as tartarate salt in 0.5% Tween-80; FIG. 6. The protocol:
as §1, §2

The test system of series [6] is metastatic Triple negative MDA-MB-231 Breast cancer cells. Description: viability / killing of MDA-MB-231 cells. The series is classed as cell-based. To be noted: E266 versus E260; compound (I) as tartarate salt in 0.5% Tween-80; FIG. 5. How it is done:
as §1, §2

The nature of series [7]: insolubility level in PBS/Polysorbate-80 (Tween 80) solution. The series is classed as physicochemical. To be noted: 0.5 mM and 1 mM in PBS/Polysorbate-80 (Tween 80) solution at 25° C. (FIG. 1A, 1B).

With `CC(C)c1ccc(-c2cn3nc(N4CCC(CN5CCN(C)CC5)CC4)sc3n2)cc1` [Compound E260, reference compound], the “progression of the developing tumors (xenograft volume)” value in series [1] is given as “failed to do so”. In series [2], the “killing metastatic colon cancer SW620 cells” value is listed as “comparable activity”. Moreover, in series [3], the “killing metastatic pancreatic ductal adenocarcinoma Su.86.86 cancer cells” value was “comparable activity”. The “effect on normal Epithelial cells” value in series [4] was “no effect”. In addition, in series [5], the “killing metastatic adenocarcinoma PC3 prostate Cancer cells” value is listed as “comparable activity”. For the same molecule, the “killing metastatic Triple negative MDA-MB-231 Breast cancer cells” value in series [6] is on record as “comparable activity”. Also, the “solubility (insolubility level)” value in series [7] is “insoluble”.

For the origin of these results see patent US12084459B2, “2-(4-{1-[6-(4-isopropyl-phenyl)-imidazo[2,1-b][1,3,4]thiadiazol-2-yl]-piperidin-4-ylmethyl}-piperazin-1-yl)-ethanol and use thereof” (Urifer Ltd., priority 2020, dated 2024).
